Entries after “also recorded” stand apart in the source; their conditions may differ.
B1: G-CSF: Granulocyte colony-stimulating factor polypeptide, irradiation mitigator (protein, listed as Homo sapiens)
chain: MAGPATQSPMKLMALQLLLWHSALWTVQEATPLGPASSLPQSFLLKCLEQVRKIQGDGAALQEKLVSECATYKLCHPEELVLLGHSLGIPWAPLSSCPSQALQLAGCLSQLHSGLFLYQGLLQALEGISPELGPTLDTLQLDVADFATTIWQQMEELGMAPALQPTQGAMPAFASAFQRRAGGVLVASHLQSFLEVSYRVLRHLAQP

Columns and labels:
[1] = system: C57BL/6NTac mice irradiated to 9.25 Gy total body irradiation; experiment: Survival after 9.25 Gy total body irradiation (TBI); format: in vivo, mouse; details: 9.25 Gy TBI; for 30 days survival: JP4-039 20 mg/kg I.M., G-CSF 4 mg/kg I.P. at 24 h, n=10, irradiated controls 20%; for survival at 30 days after TBI: treatment 24 hrs later, FIG. 7, irradiated control 10%
Excerpt: Mice and Animal Care. Female C57BL/6NTac (Taconic Biosciences, Wayne, Pa.) and C57BL/6 lgr5+ green fluorescent protein tagged (5-6) lgr5+ mice were housed 5 per cage and fed standard laboratory chow and deionized drinking water according to University of Pittsburgh IACUC regulations.
Irradiation. Total body irradiation was delivered with a cesium-137 Gamma Cell irradiator with filters removed at a dose rate of […], beam flatness, homogeneity, and analysis of spectrum of gamma ray precise dosimetry were carried out. Mice were irradiated in a plexiglass pie plate that contains 12 sections. Five mice were placed in each pie plate. The mice were not placed in adjacent sections, but had one or two empty sections between mice so that the mice would not shield the other mice in the pie plate. Thermoluminescent (TLD) readings according to published methods. [Steinman J, et al., Improved total- body irradiation survival by delivery of two radiation mitigators that target distinct cell death pathways. Radiat Res 189(1): 68-83, 2018.]
Dose Response Curve of Number of Gavaged Lactobacillus-reuteri, or E. coli Producing IL-22 or IFN-β. Mice were irradiated to 9.25 Gy TBI, which took 13-14 minutes, and were then 24 h later gavaged with 100 μL saline solution containing Lactobacillus reuteri-IL-22, or E. coli-IL-22, or at 48 hrs post irradiation E. coli-IFN-β (based on the known time of requirement for IFN-β by lgr5+ cells at this time). All groups of mice received 100 μL saline, which contained varying numbers of bacteria ranging from 10^9, 10^8, 10^7, to 10^6 bacteria (n=10 animals per group).
Administration of Small Molecule Radiation Mitigator, IL-22 Protein, L. reuteri Lacking IL-22, or Gavaged Fecal Microbiome. As a control for probiotic mitigators, the GS-nitroxide, JP4-039 [Rwigema J -CM, et al., Two strategies for the development of mitochondrial-targeted small molecule radiation damage mitigators. Int J Radiat Oncol Biol Phys 80(3): 860-868, 2011], was prepared and administered according to published methods, I.M. at 20 mg/kg in 50 μL of 30% cyclodextrin aqueous [Epperly M W, et al., Evaluations of different formulations and routes for the delivery of the ionizing radiation mitigation GS-nitroxide (JP4-039). In Vivo 32: 1009-1023, 2018]. Cyclodextrin alone has no radiomitigative effect. […]
10^9 L. reuteri lacking IL-22 was administered in 100 μl/saline. A similar number of bacteria from feces obtained from 30-day survivors of 9.25 Gy TBI was gavaged. Fecal microbiome transplant (FMT) was carried out by delivery by gavage in 100 μL saline; 10^9 bacteria from the feces of 30-day survivors of 9.25 Gy TBI of C57BL/6 female mice.
C57BL/6NTac mice were irradiated to 9.25 Gy total body irradiation and gavaged with Lactobacillus reuteri-IL-22 or Lactobacillus reuteri harboring the empty vector control. […]
To determine whether successful radiation mitigation correlated with changes in the intestinal microbiome, groups of mice received 9.25 Gy total body irradiation (TBI) and subgroups treated with the small molecule radiation mitigator, JP4-039 (20 mg/kg in 50 microliters of 30% 2-hydroxypropyl-β-cyclodextrin I.M.), G-CSF (4 mg/kg I.P.), or both mitigators at 24 h after TBI. Fecal pellets were analyzed pre-irradiation, and at days 1, 3, 5, 7, 10, 14, 21, and 30 after irradiation. […]

IL-22 = experiment: Intestinal level of IL-22 after TBI; format: in vivo, mouse; details: 9.25 Gy TBI; treatment at 24 h; FIG. 17A

Molecule	30 days survival [1]	survival at 30 days after TBI [1]	intestinal level of IL-22 after TBI (IL-22)	survival compared to irradiation only mice ([1]; treatment 24 hr after, IL-22 protein 0.1 mg/kg I.M., FIG. 9)
CC(C)C[C@@H](/C=C/CC(=O)NC1CC(C)(C)N([O])C(C)(C)C1)NC(=O)OC(C)(C)C [JP4-039]	50%	70%	restored IL-22 levels	–
IL-22 protein: recombinant IL-22 protein injected as control	–	40%	–	significantly increased survival; also recorded: significantly improved survival
B1	70%	–	–	–

Source: patent US20220362340A1, “COMPOSITIONS AND USES THEREOF FOR TREATING IRRADIATION-INDUCED INTESTINAL DAMAGE” (UNIVERSITY OF PITTSBURGH-OF THE COMMONWEALTH SYSTEM OF …, priority 2019, published 2022)
